Tests used:
[1] = system: larvae of the green rice leafhopper (Nephotettix cincticeps); assay: Nephotettix test; assay type: in vivo; settings: after 6 days; active compound concentration 0.1%; rice seedlings dipped
Protocol: Nephotettix Test Solvent: 7 parts by weight of dimethylformamide Emulsifier: 1 part by weight of alkylaryl polyglycol ether […] Rice seedlings (Oryzae sativa) are treated by being dipped into the preparation of the active compound of the desired concentration and are infested with larvae of the green rice leafhopper (Nephotettix cincticeps), while the seedlings are still moist.

[2] = system: black bean aphids (Aphis fabae); assay: Limit concentration test / root-systemic action; assay type: in vivo; settings: active compound concentration 20 ppm in soil; beans (Vicia faba); leaves infested after 7 days, evaluated after a further 2 days
Text: Limit Concentration Test/Root-systemic Action Test insect: Aphis fabae Solvent: 4 parts by weight of acetone Emulsifier: 1 part by weight of alkylaryl polyglycol ether […] The preparation of active compound is intimately mixed with soil. The concentration of the active compound in the preparation is of no importance in practise, only the amount by weight of active compound per unit volume of soil, which is given in ppm (=mg/l), being decisive. The treated soil is transferred into pots and these are planted with beans (Vicia faba). The active compound can in this way be taken up from the soil by the roots of the plants and be transported into the leaves. […] After a further 2 days, the evaluation is made by counting or estimating the dead animals. The root-systemic action of the active compound is deduced from the destruction figures.

[3] = system: All larval stages of Lucilia cuprina (OP resistant); assay: Test with fly larvae / development-inhibiting activity; assay type: in vivo; settings: active compound concentration 1000 ppm
Protocol: Test with Fly Larvae/Development-inhibiting Activity
Test animals: All larval stages of Lucilia cuprina (OP resistant) [Pupae and adults (without contact with the active compound)]
Solvent: 35 parts by weight of ethylene glycol monomethyl ether 35 parts by weight of nonylphenol polyglycol ether
For each concentration, 30 to 50 larvae are introduced into test tubes containing horse meat (1 cm^3), onto which […] of the dilution under test are pipetted. The glass test tubes are placed in plastic beakers which have bottoms covered with sea sand and are kept in an air-conditioned room (26° C.±1.5° C., 70% relative humidity ±10%). The action is inspected after 24 hours and 48 hours (larvicidal action). After emigration of the larvae (approximately 72 h), the test tubes are removed and perforated plastic lids are placed on the beakers. After 1½ times the development period (emergence of the control flies), the emerged flies and the pupae/pupal cases are counted.
The criterion of activity used is the occurrence of death of the treated larvae after 48 h (larvicidal effect), or the inhibition of adult emergence from the pupae, or inhibition of pupal formation. The criterion used for the in-vitro activity of a substance is inhibition of fly development, or cessation of development prior to the adult stage. 100% larvicidal activity means that all larvae have died after 48 hours. 100% development inhibition activity means that no adult flies emerged.

[4] = system: Sphaerotheca fuliginea; assay: Sphaerotheca test (cucumber) / protective; settings: active compound concentration 100 ppm, evaluation 10 days after inoculation
Protocol: Solvent: 4.7 parts by weight of acetone
Emulsifier: 0.3 parts by weight of alkylaryl polyglycol ether
After the spray coating has dried on, the plants are dusted with conidia of the fungus Sphaerotheca fuliginea.
The plants are then placed in a greenhouse at 23 to 24° C. and at a relative atmospheric humidity of about 75%.
Evaluation is carried out 10 days after the inoculation.

[5] = system: mustard beetle larvae (Phaedon cochleariae); assay: Phaedon larvae test; assay type: in vivo; settings: after 7 days; active compound concentration 0.01%; cabbage leaves dipped
Protocol: (§1) Phaedon Larvae Test Solvent: 7 parts by weight of dimethylformamide Emulsifier: 1 part by weight of alkylaryl polyglycol ether […] Cabbage leaves (Brassica oleracea) are treated by being dipped into the preparation of the active compound of the desired concentration and are infested with mustard beetle larvae (Phaedon cochleariae), while the leaves are still moist.

[6] = system: caterpillars of the diamond-back moth (Plutella maculipennis); assay: Plutella test; assay type: in vivo; settings: after 7 days; active compound concentration 0.1%; cabbage leaves dipped
Protocol: as §1, with “Plutella” for “Phaedon Larvae”, “caterpillars of the diamond-back moth (Plutella maculipennis),” for “mustard beetle larvae (Phaedon cochleariae),”

[7] = system: caterpillars of the owlet moth (Spodoptera frugiperda); assay: Spodoptera test; assay type: in vivo; settings: after 7 days; active compound concentration 0.1%; cabbage leaves dipped
Protocol: Solvent: 7 parts by weight of dimethylformamide
(§2) Emulsifier: 1 part by weight of alkylaryl polyglycol ether
Cabbage leaves (Brassica oleracea) are treated by being dipped into the preparation of the active compound of the desired concentration and are infested with caterpillars of the owlet moth (Spodoptera frugiperda), while the leaves are still moist.
After the specified period of time, the destruction in % is determined. 100% means that all the caterpillars have been killed; 0% means that none of the caterpillars have been killed.

[8] = system: common spider mite (Tetranychus urticae); assay: Tetranychus test (resistance); assay type: in vivo; settings: after 13 days; active compound concentration 0.01%; bean plants dipped
Protocol: Tetranychus Test (Resistance)
Solvent: 3 parts by weight of dimethylformamide
as §2
After the specified period of time, the destruction in % is determined. 100% means that all the spider mites have been killed 0% means that none of the spider mites have been killed.

Structure (SMILES) | degree of destruction [1] | activity in comparison with the untreated control [4] | degree of destruction [5] | degree of destruction [6] | further results
C#CCOCOc1c(C)c(-c2ccccn2)oc(=O)c1-c1c(C)cc(C)cc1C [Example 1, 5-methyl-6-(2-pyridyl)-4-propargyloxymethoxy-3-(2,4,6-trimethylphenyl)-2-pyrone] | 100% | 100% | – | – | degree of destruction (root-systemic action) [2]: 100%; inhibition at 1000 ppm ([3]; Lucilia cuprina, read-out: activity (larvicidal / development inhibition)): 100%
Cc1cc(C)c(-c2c(OCOCC(C)C)c(C)c(-c3ccc(Cl)cc3)oc2=O)c(C)c1 [Example 2, 6-(4-chlorophenyl)-4-[(2-methyl-1-propoxy)-methoxy]-5-methyl-3-(2,4,6-trimethylphenyl)-2-pyrone] | – | 100% | – | – | –
CCOCOc1c(C)c(-c2ccc(F)cc2)oc(=O)c1-c1c(C)cc(C)cc1C [Example 4] | 100% | 100% | 100% | 100% | degree of destruction [7]: 100%; activity (larvicidal / development inhibition) [3]: 100%
CCOCOc1cc(CC(C)C)oc(=O)c1-c1c(C)cc(C)cc1C [Example 5] | – | – | 100% | 100% | degree of destruction [7]: 100%
C#CCOCOc1c(C)c(-c2ccc(F)cc2)oc(=O)c1-c1c(C)cc(C)cc1C [Example 7] | 100% | 100% | – | – | –
Cc1cc(C)c(-c2c(OCOCC(C)C)c(C)c(-c3ccc(F)cc3)oc2=O)c(C)c1 [Example 8] | – | 100% | – | – | –
Cc1cc(C)c(-c2c(OCOC(C)C)c(C)c(-c3ccc(F)cc3)oc2=O)c(C)c1 [Example 9] | 100% | 100% | 100% | 100% | degree of destruction [7]: 100%; degree of destruction [8]: 100%; activity (larvicidal / development inhibition) [3]: 100%
Cc1cc(C)c(-c2c(OCOCC(C)C)c(C)c(-c3ccccn3)oc2=O)c(C)c1 [Example 10] | – | 100% | – | 100% | degree of destruction (root-systemic action) [2]: 100%; degree of destruction [8]: 100%; activity (larvicidal / development inhibition) [3]: 100%
Cc1cc(C)c(-c2c(OCOC(C)C)c(C)c(-c3ccccn3)oc2=O)c(C)c1 [Example 11] | 100% | 100% | – | – | degree of destruction (root-systemic action) [2]: 100%; degree of destruction [8]: 100%; activity (larvicidal / development inhibition) [3]: 100%
Cc1cc(C)c(-c2c(OCOC(C)C)cc(C3(Cl)CC3)oc2=O)c(C)c1 [Example 21] | 100% | 100% | – | – | degree of destruction [8]: 100%
CCOCOc1c(C)c(-c2ccccn2)oc(=O)c1-c1c(C)cc(C)cc1C [Example 26] | 100% | – | 100% | – | –
Cc1cc(C)c(-c2c(OCOCC(C)C)c(C)c(-c3cccc(C)n3)oc2=O)c(C)c1 [Example 27] | 100% | – | 100% | 100% | –
Cc1cc(C)c(-c2c(OCOC(C)C)c(C)c(-c3cccc(C)n3)oc2=O)c(C)c1 [Example 28] | 100% | – | 100% | 100% | –
CCOCOc1c(C)c(C2CCCC2)oc(=O)c1-c1c(C)cc(C)cc1C [Example 32] | 100% | – | – | 100% | degree of destruction [7]: 100%
C#CCOCOc1c(C)c(C2CCCC2)oc(=O)c1-c1c(C)cc(C)cc1C [Example 33] | 100% | – | – | – | –
Cc1cc(C)c(-c2c(OCOC(C)C)c(C)c(C3CCCC3)oc2=O)c(C)c1 [Example 34] | – | – | – | 100% | degree of destruction [7]: 100%
Cc1cc(C)c(-c2c(OCOCC(C)C)oc(-c3ccsc3)c(C)c2=O)c(C)c1 [Example 36, 2-[(2-Methyl-1-propoxy)-methoxy]-5-methyl-6-(3-thienyl)-3-(2,4,6-trimethyl-phenyl)-4-pyrone] | – | – | – | – | melting point: 102 to 104 °C

Source: patent US6576771B1, “Oxymethoxy-3-aryl-pyrone derivatives” (Bayer Aktiengesellschaft, priority 1995, dated 2003)
